The values that follow come from US20120264735A1 (priority 2009, published 2012).

Structures are written as SMILES.

T1 sequence (P08581 25-1390): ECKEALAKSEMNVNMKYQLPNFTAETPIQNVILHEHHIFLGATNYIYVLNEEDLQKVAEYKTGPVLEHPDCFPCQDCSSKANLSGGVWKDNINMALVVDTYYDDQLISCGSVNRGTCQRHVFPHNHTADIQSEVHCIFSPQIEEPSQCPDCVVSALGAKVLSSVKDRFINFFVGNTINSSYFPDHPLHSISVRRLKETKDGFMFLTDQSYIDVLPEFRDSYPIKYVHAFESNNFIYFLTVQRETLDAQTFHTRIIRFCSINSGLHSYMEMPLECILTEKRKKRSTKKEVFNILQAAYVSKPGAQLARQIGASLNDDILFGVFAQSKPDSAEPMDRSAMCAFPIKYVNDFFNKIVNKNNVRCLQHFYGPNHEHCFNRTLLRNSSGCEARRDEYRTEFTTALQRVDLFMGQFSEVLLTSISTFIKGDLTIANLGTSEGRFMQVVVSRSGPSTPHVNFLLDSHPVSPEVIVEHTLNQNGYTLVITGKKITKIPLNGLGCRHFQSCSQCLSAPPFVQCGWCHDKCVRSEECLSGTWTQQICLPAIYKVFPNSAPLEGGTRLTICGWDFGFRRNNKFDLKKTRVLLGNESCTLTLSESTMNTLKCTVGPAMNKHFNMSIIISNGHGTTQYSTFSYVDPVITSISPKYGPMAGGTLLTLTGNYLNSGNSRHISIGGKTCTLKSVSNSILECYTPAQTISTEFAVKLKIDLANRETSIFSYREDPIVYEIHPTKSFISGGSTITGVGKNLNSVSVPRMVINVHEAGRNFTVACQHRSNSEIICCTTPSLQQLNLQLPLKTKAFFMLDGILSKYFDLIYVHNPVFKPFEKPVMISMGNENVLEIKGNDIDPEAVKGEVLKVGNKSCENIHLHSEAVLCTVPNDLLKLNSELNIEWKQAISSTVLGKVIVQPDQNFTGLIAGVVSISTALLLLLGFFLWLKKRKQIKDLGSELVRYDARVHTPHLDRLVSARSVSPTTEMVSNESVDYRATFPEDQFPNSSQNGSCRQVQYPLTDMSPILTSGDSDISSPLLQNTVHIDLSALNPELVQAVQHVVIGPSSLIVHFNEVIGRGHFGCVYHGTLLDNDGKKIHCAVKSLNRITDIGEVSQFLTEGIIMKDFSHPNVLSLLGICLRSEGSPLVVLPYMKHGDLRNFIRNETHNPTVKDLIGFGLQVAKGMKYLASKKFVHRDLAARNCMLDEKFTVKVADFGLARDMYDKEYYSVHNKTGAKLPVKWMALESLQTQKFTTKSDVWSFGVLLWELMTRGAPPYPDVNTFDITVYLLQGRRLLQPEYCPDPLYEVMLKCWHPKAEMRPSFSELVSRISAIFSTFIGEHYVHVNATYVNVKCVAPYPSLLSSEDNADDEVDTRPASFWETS

The assay concerns the target T1, c-Met kinase (recombinant c-Met) (Homo sapiens, UniProt P08581).
T1 construct: 0.27 nM recombinant c-Met
Briefly: In vitro kinase assay I (homogeneous time-resolved fluorescence tyrosine kinase assay). The assay is classed as biochemical. The method, boiled down:
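Biotinylated peptide (0.5 μM) phosphorylated by 0.2 nM recombinant c-Met with 50 μM MgATP, 60 min at room temperature, pH 7.4, 5% DMSO. EDTA stop; HTRF read with Eu-anti-phosphotyrosine antibody and streptavidin-APC. IC50 from 4-parameter logistic fit.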
For `CCOc1cnc(-c2cccc(C(C)c3nn(-c4cccc(C(N)=O)c4)ccc3=O)c2)nc1` (racemic) [Example 738, rac-3-[3-{1-[3-(5-ethoxypyrimidin-2-yl)phenyl]ethyl}-4-oxopyridazin-1(4H)-yl]lbenzamide], the IC50 was below 100 nM.
Next, `CC(C)COc1cnc(-c2cccc(Cc3nn(-c4cnn(C)c4)ccc3=O)c2)nc1` [Example 261, 3-{3-[5-(2-methylpropoxy)pyrimidin-2-yl]benzyl}-1-(1-methyl-1H-pyrazol-4-yl)pyridazin-4(1H)-one]: below 100 nM; `Cn1cc(-n2ccc(=O)c(Cc3cccc(NC(=O)OCCN4CCC(F)(F)C4)c3)n2)cn1` [Example 524, 2-(3,3-difluoropyrrolidin-1-yl)ethyl (3-{[1-(1-methyl-1H-pyrazol-4-yl)-4-oxo-1,4-dihydropyridazin-3-yl]methyl}phenyl)carbamate]: below 100 nM; `COCCCn1cnc(-c2cccc(Cc3nn(-c4cnn(C)c4)ccc3=O)c2)n1` [Example 77, 3-{3-[1-(3-methoxypropyl)-1H-1,2,4-triazol-3-yl]benzyl}-1-(1-methyl-1H-pyrazol-4-yl)pyridazin-4(1H)-one]: below 100 nM.
The same measure for `CCOC(=O)Nc1cccc(C(F)c2nn(-c3ccc(Cl)cc3)ccc2=O)c1` (racemic) [Example 641, rac-Ethyl(3-{[1-(4-chlorophenyl)-4-oxo-1,4-dihydropyridazin-3-yl](fluoro)methyl}phenyl)carbamate]: 100 to 1000 nM.
The same measure for `CCCOC(=O)Nc1cccc(Cc2nn(-c3cnn(CC4CCOCC4)c3)ccc2=O)c1` [Example 101, propyl [3-({4-oxo-1-[1-(tetrahydro-2H-pyran-4-ylmethyl)-1H-pyrazol-4-yl]-1,4-dihydropyridazin-3-yl}methyl)phenyl]carbamate]: 100 to 1000 nM; for `CCn1cc(-n2ccc(=O)c(Cc3cccc(-c4ncc(COC)cn4)c3)n2)cn1` [Example 163, 1-(1-ethyl-1H-pyrazol-4-yl)-3-{3-[5-(methoxymethyl)pyrimidin-2-yl]benzyl}pyridazin-4(1H)-one]: below 100 nM; for `CCn1cc(-n2ccc(=O)c(Cc3cccc(-c4ncc(OC(C)C)cn4)c3)n2)cn1` [Example 305, 1-(1-ethyl-1H-pyrazol-4-yl)-3-[3-(5-isopropoxypyrimidin-2-yl)benzyl]pyridazin-4(1H)-one]: below 100 nM.
`CCOc1cnc(-c2cccc(Cc3nn(-c4ccc(C(=O)NCC(C)(C)O)c(F)c4)ccc3=O)c2)nc1` [Example 724, 4-{3-[3-(5-ethoxypyrimidin-2-yl)benzyl]-4-oxopyridazin-fluoro-N-(2-1(4H)-yl}-2-hydroxy-2-methylpropyl) benzamide]: the half-maximal inhibitory concentration (IC50) was below 100 nM.
As to `C[C@H](Oc1cnc(-c2cccc(Cc3nn(-c4cnn(C)c4)ccc3=O)c2)nc1)[C@@H](C)O` (single isomer, unassigned) [Example 377], the concentration for half-maximal inhibition (IC50) is below 100 nM.
`CC(C)COC(=O)Nc1cccc(Cc2nn(-c3cnn(CC(F)(F)F)c3)ccc2=O)c1` [Example 93, 2-methylpropyl [3-({4-oxo-1-[1-(2,2,2-trifluoroethyl)-1H-pyrazol-4-yl]-1,4-dihydropyridazin-3-yl}methyl)phenyl]carbamate]: the IC50 is below 100 nM.
Next, `Cn1cc(-c2cnc(-c3cccc(Cc4nn(-c5ccc(F)c(F)c5)ccc4=O)c3)nc2)cn1` [Example 156, 1-(3,4-difluorophenyl)-3-{3-[5-(1-methyl-1H-pyrazol-4-yl)pyrimidin-2-yl]benzyl}pyridazin-4(1H)-one]: below 100 nM; `O=C(Nc1cccc(Cc2nn(-c3cc(F)cc(F)c3)ccc2=O)c1)OCC1CCOC1` (racemic) [Example 593, rac-tetrahydrofuran-3-ylmethyl-(3-{[1-(3,5-difluorophenyl)-4-oxo-1,4-dihydropyridazin-3-yl]methyl}phenyl)carbamate]: below 100 nM; `CCn1cc(-n2ccc(=O)c(C(C)c3cccc(-c4ncc(OCc5noc(C)n5)cn4)c3)n2)cn1` (single isomer, unassigned) [Example 302, 1-(1-ethyl-1H-pyrazol-4-yl)-3-[(1R or S)-1-(3-{5-[(5-methyl-1,2,4-oxadiazol-3-yl)methoxy]pyrimidin-2-yl}phenyl)ethyl]pyridazin-4(1H)-one]: below 100 nM.
As to `CCOc1cnc(-c2cccc(Cc3nn(-c4ccc(C(=O)NCCO)c(F)c4)ccc3=O)c2)nc1` [Example 722, 4-{3-[3-(5-Ethoxypyrimidin-2-yl)benzyl]-4-oxopyridazin-1(4H)-yl}-2-fluoro-N-(2-hydroxyethyl)benzamide], the 50% inhibitory concentration (IC50) was below 100 nM.
Next, `Cn1cc(-n2ccc(=O)c(Cc3cccc(-c4ncc(CCc5ccccc5)cn4)c3)n2)cn1` [Example 397, 1-(1-methyl-1H-pyrazol-4-yl)-3-{3-[5-(2-phenylethyl)pyrimidin-2-yl]benzyl}pyridazin-4(1H)-one]: below 100 nM; `CCOCc1cnc(-c2cccc(C(C)c3nn(-c4cnn(C)c4)ccc3=O)c2)nc1` (racemic) [Example 221, rac-3-(1-{3-[5-(ethoxymethyl)pyrimidin-2-yl]phenyl}ethyl)-1-(1-methyl-1H-pyrazol-4-yl)pyridazin-4(1H)-one]: below 100 nM.
The same measure for `Cc1nnc(-c2cccc(Cc3nn(-c4cnn(C)c4)ccc3=O)c2)s1` [Example 75, 1-(1-methyl-1H-pyrazol-4-yl)-3-[3-(5-methyl-1,3,4-thiadiazol-2-yl)benzyl]pyridazin-4(1H)-one]: 1000 to 3000 nM; for `Cn1cc(-n2ccc(=O)c(Cc3cccc(-c4ncc(OC(F)F)cn4)c3)n2)cn1` [Example 386, 3-{3-[5-(Difluoromethoxy)pyrimidin-2-yl]benzyl}-1-(1-methyl-1H-pyrazol-4-yl)pyridazin-4(1H)-one]: below 100 nM; for `O=C(Nc1cccc(Cc2nn(-c3cc(F)cc(F)c3)ccc2=O)c1)OCC1COCCO1` (racemic) [Example 520, rac-1,4-dioxan-2-ylmethyl (3-{[1-(3,5-difluorophenyl)-4-oxo-1,4-dihydropyridazin-3-yl]methyl}phenyl)carbamate]: below 100 nM.
Next, `CCc1cnc(-c2cccc(C(C)c3nn(-c4ccc(F)c(F)c4)ccc3=O)c2)nc1` (single isomer, unassigned) [Example 231, 1-(3,4-difluorophenyl)-3-{(1R or S)-1-[3-(5-ethylpyrimidin-2-yl)phenyl]ethyl}pyridazin-4(1H)-one]: below 100 nM; `Cn1cc(-n2ccc(=O)c(Cc3cccc(NC(=O)OCc4ccccc4)c3)n2)cn1` [Example 498, benzyl(3-{[1-(1-methyl-1H-pyrazol-4-yl)-4-oxo-1,4-dihydropyridazin-3-yl]methyl}phenyl)carbamate]: below 100 nM; `Cn1cc(-n2ccc(=O)c(Cc3cccc4[nH]ncc34)n2)cn1` [Example 50, 3-(1H-indazol-4-ylmethyl)-1-(1-methyl-1H-pyrazol-4-yl)pyridazin-4(1H)-one]: 1000 to 3000 nM.
On to `CC(C)COC(=O)Nc1cccc(Cc2nn(-c3cnn(CCCC(=O)N4CCOCC4)c3)ccc2=O)c1` [Example 698, 2-methylpropyl [3-({1-[1-(4-morpholin-4-yl-4-oxobutyl)-1H-pyrazol-4-yl]-4-foundoxo-1,4-dihydropyridazin-3-yl}methyl)phenyl] carbamate], for which the half-inhibitory concentration (IC50) was below 100 nM.
Next, `Cn1cc(-n2ccc(=O)c(Cc3cccc(NC(=O)OC[C@@H]4CCCN4)c3)n2)cn1` [Example 616, (2S)-pyrrolidin-2-ylmethyl (3-{[1-(1-methyl-1H-pyrazol-4-yl)-4-oxo-1,4-dihydropyridazin-3-yl]methyl}phenyl)carbamate]: 100 to 1000 nM; `Cn1cc(-n2ccc(=O)c(Cc3cccc(-c4ncc(C(=O)NCC5CCCOC5)cn4)c3)n2)cn1` (racemic) [Example 478, rac-2-(3-{[1-(1-methyl-1H-pyrazol-4-yl)-4-oxo-1,4-dihydro-pyridazin-3-yl]methyl}phenyl)-N-tetrahydro-2H-pyran-3-ylmethyl)pyrimidine-5-carboxamide]: below 100 nM.
For the compound `Cn1cc(-n2ccc(=O)c(Cc3cccc(-c4ncc(OCc5ncn(C)n5)cn4)c3)n2)cn1` [Example 356, 1-(1-methyl-1H-pyrazol-4-yl)-3-(3-{5-[(1-methyl-1H-1,2,4-triazol-3-yl)methoxy]pyrimidin-2-yl}benzyl)pyridazin-4(1H)-one], the IC50 is below 100 nM.
Next, `CCCn1cc(-n2ccc(=O)c(Cc3cccc(-c4ncc(OC)cn4)c3)n2)cn1` [Example 114, 3-[3-(5-methoxypyrimidin-2-yl)benzyl]-1-(1-propyl-1H-pyrazol-4-yl)pyridazin-4(1H)-one]: below 100 nM; `N#Cc1ccc(-n2ccc(=O)c(Cc3cccc(NC(=O)OCC4CCOC4)c3)n2)cc1` (racemic) [Example 139, rac-tetrahydrofuran-3-ylmethyl (3-{[1-(4-cyanophenyl)-4-oxo-1,4-dihydropyridazin-3-yl]methyl}phenyl)carbamate]: below 100 nM.
Next, `CCC(c1cccc(-c2ncc(OC)cn2)c1)c1nn(-c2cnn(C)c2)ccc1=O` (racemic) [Example 225, rac-3-{1-[3-(5-methoxypyrimidin-2-yl)phenyl]propyl}-1-(1-methyl-1H-pyrazol-4-yl)pyridazin-4(1H)-one]: below 100 nM.
Next, `CC(C)(O)COc1cnc(-c2cccc(Cc3nn(-c4cc(F)cc(C#N)c4)ccc3=O)c2)nc1` [Example 6, 3-Fluoro-5-[3-{3-[5-(2-hydroxy-2-methylpropoxy)pyrimidin-2-yl]benzyl}-4-oxopyridazin-1(4H)-yl]benzonitrile]: below 100 nM.
On to `CCCCNC(=O)Nc1cccc(Cc2nn(-c3cnn(C)c3)ccc2=O)c1` [Example 494, 1-butyl-3-(3-{[1-(1-methyl-1H-pyrazol-4-yl)-4-oxo-1,4-dihydropyridazin-3-yl]methyl}phenyl)urea], for which the IC50 is below 100 nM.
For the compound `CCn1cc(-n2ccc(=O)c(Cc3cccc(-c4ncc(-c5cnn(C)c5)cn4)c3)n2)cn1` [Example 157, 1-(1-ethyl-1H-pyrazol-4-yl)-3-{3-[5-(1-methyl-1H-pyrazol-4-yl)pyrimidin-2-yl]benzyl}pyridazin-4(1H)-one], the half-maximal inhibitory concentration (IC50) is below 100 nM.

What is called IC50 is the concentration at which inhibition is half-maximal.
